In patent US6780861B2, “Azabicyclic carbamates and their use as α-7 nicotinic acetylcholine receptor agonists” (Novartis AG, priority 2000, dated 2004):
Where a name gives a salt, the structure may show the parent alone.

## O=C(NC1CN2CCC1CC2)OCc1ccc2c(c1)OCO2 (centres unmarked) (as salt: hydrochloride)
  melting point: 186 to 187 °C

## COc1cc(COC(=O)NC2CN3CCC2CC3)cc(OC)c1OC (centres unmarked) (as salt: hydrochloride)
  melting point: 211 to 212 °C
